In patent publication US9302999B2, “Substituted triazoles as herbicides” (E. I. DU PONT DE NEMOURS AND COMPANY, priority 2012, dated 2016):

How the values were obtained:
Type in all cases: in vivo
[1] = test system: foxtail, giant (giant foxtail, Setaria faberii); experiment: Test A pre-/postemergence: foxtail, giant; conditions: for Foxtail, Giant plant response rating: Postemergence; for Plant response rating, Foxtail, Giant: Preemergence
Procedure, shortened: (§1)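 Injury was scored visually on a 0 (no effect) to 100 (complete control) scale versus untreated controls roughly ten days after treatment in the greenhouse. Compounds, formulated in surfactant-containing non-phytotoxic solvent, went on as soil-directed preemergence spray or postemergence to one- to two-leaf plants 2–10 cm tall.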

corn (Zea mays) = experiment: Test A pre-/postemergence: corn; conditions: for Corn plant response rating: Postemergence; for Plant response rating, Corn: Preemergence
Procedure, shortened: as §1

[2] = test system: crabgrass, large (large crabgrass, Digitaria sanguinalis); experiment: Test A pre-/postemergence: crabgrass, large; conditions: for Crabgrass, Large plant response rating: Postemergence; for Plant response rating, Crabgrass, Large: Preemergence
Procedure, shortened: as §1

[3] = test system: wheat (Triticum aestivum); experiment: Test A pre-/postemergence: wheat; conditions: for Wheat plant response rating: Postemergence; for Plant response rating, Wheat: Preemergence
From the text: (§2) Seeds of barnyardgrass (Echinochloa crus-galli), crabgrass, large (large crabgrass, Digitaria sanguinalis), foxtail, giant (giant foxtail, Setaria faberii), morningglory (Ipomoea spp.), pigweed (Amaranthus retroflexus), velvetleaf (Abutilon theophrasti), wheat (Triticum aestivum), and corn (Zea mays) were planted into a blend of loam soil and sand and treated preemergence with a directed soil spray using test chemicals formulated in a non-phytotoxic solvent mixture which included a surfactant. At the same time these species were also treated with postemergence applications of test chemicals formulated in the same manner.
(§3) Plants ranged in height from two to ten cm and were in the one- to two-leaf stage for the postemergence treatment. Treated plants and untreated controls were maintained in a greenhouse for approximately ten days, after which time all treated plants were compared to untreated controls and visually evaluated for injury. Plant response ratings, summarized in Table A, are based on a 0 to 100 scale where 0 is no effect and 100 is complete control. A dash (-) response means no test result.

[4] = test system: pigweed (Amaranthus retroflexus); experiment: Test A pre-/postemergence: pigweed; conditions: for Pigweed plant response rating: Postemergence; for Plant response rating, Pigweed: Preemergence
Procedure, shortened: as §1

[5] = test system: barnyardgrass (Echinochloa crus-galli); experiment: Test A pre-/postemergence: barnyardgrass; conditions: for Barnyardgrass plant response rating: Postemergence; for Plant response rating, Barnyardgrass: Preemergence
From the text: as §2, §3

[6] = test system: morningglory (Ipomoea spp.); experiment: Test A pre-/postemergence: morningglory; conditions: for Morningglory plant response rating: Postemergence; for Plant response rating, Morningglory: Preemergence
From the text: as §2, §3

[7] = test system: velvetleaf (Abutilon theophrasti); experiment: Test A pre-/postemergence: velvetleaf; conditions: for Velvetleaf plant response rating: Postemergence; for Plant response rating, Velvetleaf: Preemergence
Procedure, shortened: as §1

[8] = 125 g ai/ha, 0 to 100 scale, 0 is no effect, 100 is complete control
[9] = 500 g ai/ha, visual rating on 0 to 100 scale (0 no effect, 100 complete control), approximately ten days
[10] = 125 g ai/ha, 0 to 100 scale where 0 is no effect and 100 is complete control
[11] = 500 g ai/ha, 0 to 100 scale (0 no effect, 100 complete control)

Cc1nn(-c2ccc(F)cc2)nc1Oc1cc(C(F)(F)F)ccn1 [Compound 128]
40: Pigweed plant response rating [4, 9]
30: Pigweed plant response rating [4, 8] | Morningglory plant response rating [6, 8] | Morningglory plant response rating [6, 9] | Velvetleaf plant response rating [7, 9]
10: Foxtail, Giant plant response rating [1, 9] | Corn plant response rating (corn (Zea mays); [8]) | Corn plant response rating (corn (Zea mays); [9]) | Crabgrass, Large plant response rating [2, 8]
20: Plant response rating, Foxtail, Giant [1, 11] | Crabgrass, Large plant response rating [2, 9] | Plant response rating, Crabgrass, Large [2, 11] | Barnyardgrass plant response rating [5, 9] | Plant response rating, Morningglory [6, 11] | Velvetleaf plant response rating [7, 8]
0: Foxtail, Giant plant response rating [1, 8] | Plant response rating, Foxtail, Giant [1, 10] | Plant response rating, Corn (corn (Zea mays); [10]) | Plant response rating, Corn (corn (Zea mays); [11]) | Plant response rating, Crabgrass, Large [2, 10] | Wheat plant response rating [3, 8] | Wheat plant response rating [3, 9] | Plant response rating, Wheat [3, 10] | Plant response rating, Wheat [3, 11] | Plant response rating, Pigweed [4, 10] | Plant response rating, Pigweed [4, 11] | Barnyardgrass plant response rating [5, 8] | Plant response rating, Barnyardgrass [5, 10] | Plant response rating, Barnyardgrass [5, 11] | Plant response rating, Morningglory [6, 10] | Plant response rating, Velvetleaf [7, 10] | Plant response rating, Velvetleaf [7, 11]

Cc1nn(-c2ccc(F)cc2)nc1Cn1cnc(C(F)(F)F)c1 [Compound 112]
40: Plant response rating, Barnyardgrass [5, 11]
80: Foxtail, Giant plant response rating [1, 9] | Plant response rating, Crabgrass, Large [2, 10]
90: Plant response rating, Foxtail, Giant [1, 11] | Crabgrass, Large plant response rating [2, 9] | Pigweed plant response rating [4, 8] | Plant response rating, Pigweed [4, 10]
20: Foxtail, Giant plant response rating [1, 8] | Corn plant response rating (corn (Zea mays); [8]) | Corn plant response rating (corn (Zea mays); [9]) | Plant response rating, Morningglory [6, 11] | Plant response rating, Velvetleaf [7, 11]
10: Wheat plant response rating [3, 8]
60: Plant response rating, Foxtail, Giant [1, 10] | Morningglory plant response rating [6, 8] | Velvetleaf plant response rating [7, 9]
100: Plant response rating, Crabgrass, Large [2, 11] | Pigweed plant response rating [4, 9] | Plant response rating, Pigweed [4, 11] | Morningglory plant response rating [6, 9]
50: Crabgrass, Large plant response rating [2, 8] | Velvetleaf plant response rating [7, 8]
30: Wheat plant response rating [3, 9] | Barnyardgrass plant response rating [5, 9]
0: Plant response rating, Corn (corn (Zea mays); [10]) | Plant response rating, Corn (corn (Zea mays); [11]) | Plant response rating, Wheat [3, 10] | Plant response rating, Wheat [3, 11] | Barnyardgrass plant response rating [5, 8] | Plant response rating, Barnyardgrass [5, 10] | Plant response rating, Morningglory [6, 10] | Plant response rating, Velvetleaf [7, 10]
